Experimental data from ChEMBL document CHEMBL1201862, “PubChem BioAssay data set” (2004).
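Results reflect a 48-hour exposure of cells in 96-well plates to compound at five concentrations. At the GI50, growth is halved.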 Activity calls are given as the source filed them. No stated cut-off is given here; in the data, active = GI50 up to about 1.1 µM and inactive = higher.

How the values were obtained:
Assay in all cases: NCI anticancer screen, dose series, 48 h
786-0 = test system: 786-0
A498 = test system: A498
A549 = test system: A549
ACHN = test system: ACHN
CAKI-1 = test system: CAKI-1
CCRF-CEM = test system: CCRF-CEM
COLO 205 = test system: COLO 205
DLD-1 = test system: DLD-1
DMS-114 = test system: DMS-114
DMS-273 = test system: DMS-273
EKVX = test system: EKVX
HCC 2998 = test system: HCC 2998
HL-60 = test system: HL-60
HOP-18 = test system: HOP-18
HOP-62 = test system: HOP-62
HOP-92 = test system: HOP-92
HT-29 = test system: HT-29
IGROV-1 = test system: IGROV-1
K562 = test system: K562
KM-20L2 = test system: KM-20L2
KM12 = test system: KM12
LOX IMVI = test system: LOX IMVI
LXFL 529 = test system: LXFL 529
M19-MEL = test system: M19-MEL
MOLT-4 = test system: MOLT-4
Malme-3M = test system: Malme-3M
NCI-H226 = test system: NCI-H226
NCI-H23 = test system: NCI-H23
NCI-H460 = test system: NCI-H460
NCI-H522 = test system: NCI-H522
OVCAR-4 = test system: OVCAR-4
OVCAR-8 = test system: OVCAR-8
RXF 393 = test system: RXF 393
SF-268 = test system: SF-268
SF-295 = test system: SF-295
SF-539 = test system: SF-539
SK-MEL-28 = test system: SK-MEL-28
SK-MEL-2 = test system: SK-MEL-2
SK-OV-3 = test system: SK-OV-3
SN12C = test system: SN12C
SNB-19 = test system: SNB-19
SNB-78 = test system: SNB-78
SR = test system: SR
SW-620 = test system: SW-620
TK-10 = test system: TK-10
U-251 = test system: U-251
UACC-257 = test system: UACC-257
UACC-62 = test system: UACC-62
UO-31 = test system: UO-31
XF498 = test system: XF498
HCT-116 = test system: HCT-116
HCT-15 = test system: HCT-15
M14 = test system: M14
OVCAR-3 = test system: OVCAR-3
OVCAR-5 = test system: OVCAR-5
RPMI-8226 = test system: RPMI-8226
SNB-75 = test system: SNB-75

What does the source list for `COc1ccc2c(c1)N1CCc3cc(OC)c(OC)cc3C1C2` (centres undefined)?
GI50 (786-0): 54.6 µM (inactive); GI50 (A498): 41.4 µM (inactive); GI50 (A549): 47.8 µM (inactive); GI50 (ACHN): 53 µM (inactive); GI50 (CAKI-1): 53.2 µM (inactive); GI50 (CCRF-CEM): 61 µM (inactive); GI50 (COLO 205): > 100 µM (inactive); GI50 (DLD-1): 39.7 µM (inactive); GI50 (DMS-114): 37.6 µM (inactive); GI50 (DMS-273): 43.3 µM (inactive); GI50 (EKVX): > 100 µM (inactive); GI50 (HCC 2998): 51.1 µM (inactive); GI50 (HL-60): 26.2 µM (inactive); GI50 (HOP-18): > 100 µM (inactive); GI50 (HOP-62): > 100 µM (inactive); GI50 (HOP-92): 79.8 µM (inactive); GI50 (HT-29): 70.3 µM (inactive); GI50 (IGROV-1): 28.4 µM (inactive); GI50 (K562): 32.3 µM (inactive); GI50 (KM-20L2): 73.3 µM (inactive); GI50 (KM12): 89.1 µM (inactive); GI50 (LOX IMVI): 98.6 µM (inactive); GI50 (LXFL 529): 34 µM (inactive); GI50 (M19-MEL): 41.2 µM (inactive); GI50 (MOLT-4): 26 µM (inactive); GI50 (Malme-3M): 30.5 µM (inactive); GI50 (NCI-H226): 35.5 µM (inactive); GI50 (NCI-H23): 50.1 µM (inactive); GI50 (NCI-H460): 52.4 µM (inactive); GI50 (NCI-H522): 23.7 µM (inactive); GI50 (OVCAR-4): 33.8 µM (inactive); GI50 (OVCAR-8): > 100 µM (inactive); GI50 (RXF 393): 65 µM (inactive); GI50 (SF-268): > 100 µM (inactive); GI50 (SF-295): 88.7 µM (inactive); GI50 (SF-539): > 100 µM (inactive); GI50 (SK-MEL-28): 89.1 µM (inactive); GI50 (SK-MEL-2): 87.5 µM (inactive); GI50 (SK-OV-3): > 100 µM (inactive); GI50 (SN12C): 51.9 µM (inactive); GI50 (SNB-19): > 100 µM (inactive); GI50 (SNB-78): > 100 µM (inactive); GI50 (SR): 34.2 µM (inactive); GI50 (SW-620): > 100 µM (inactive); GI50 (TK-10): > 100 µM (inactive); GI50 (U-251): > 100 µM (inactive); GI50 (UACC-257): 57.9 µM (inactive); GI50 (UACC-62): 23.6 µM (inactive); GI50 (UO-31): 85.9 µM (inactive); GI50 (XF498): 26.5 µM (inactive)

What does the source list for `O=C(NC12CC3CCC1CC(C3)C2)[C@@H]1CCCN1C(=O)OCc1ccccc1` (some centres undefined)?
GI50 (786-0): 76.7 µM (inactive); GI50 (A498): 27.9 µM (inactive); GI50 (A549): 50.4 µM (inactive); GI50 (ACHN): 44 µM (inactive); GI50 (CCRF-CEM): 36.5 µM (inactive); GI50 (COLO 205): 33.5 µM (inactive); GI50 (DLD-1): 56.9 µM (inactive); GI50 (DMS-114): 50.4 µM (inactive); GI50 (DMS-273): 49.8 µM (inactive); GI50 (EKVX): 69.5 µM (inactive); GI50 (HCC 2998): 85.9 µM (inactive); GI50 (HCT-116): 58.9 µM (inactive); GI50 (HCT-15): 44.2 µM; GI50 (HL-60): 25.8 µM (inactive); GI50 (HOP-18): > 100 µM (inactive); GI50 (HOP-62): > 100 µM (inactive); GI50 (HOP-92): 18.6 µM (inactive); GI50 (HT-29): 36.5 µM (inactive); GI50 (IGROV-1): > 100 µM (inactive); GI50 (K562): 33.7 µM (inactive); GI50 (KM-20L2): 46.9 µM (inactive); GI50 (KM12): 48.4 µM (inactive); GI50 (LOX IMVI): 59 µM (inactive); GI50 (LXFL 529): 30.3 µM (inactive); GI50 (M14): 85.9 µM (inactive); GI50 (M19-MEL): 83.6 µM (inactive); GI50 (MOLT-4): 30.1 µM (inactive); GI50 (Malme-3M): 37.5 µM (inactive); GI50 (NCI-H226): 58.9 µM (inactive); GI50 (NCI-H23): 43.3 µM (inactive); GI50 (NCI-H522): 54.7 µM (inactive); GI50 (OVCAR-3): 89.5 µM (inactive); GI50 (OVCAR-5): > 100 µM (inactive); GI50 (OVCAR-8): 50.5 µM (inactive); GI50 (RPMI-8226): 36.5 µM (inactive); GI50 (RXF 393): 16.8 µM (inactive); GI50 (SF-268): 94.8 µM (inactive); GI50 (SF-295): 36.1 µM (inactive); GI50 (SF-539): > 100 µM (inactive); GI50 (SK-MEL-28): 31.1 µM (inactive); GI50 (SK-MEL-2): 40.6 µM (inactive); GI50 (SK-OV-3): 65.3 µM (inactive); GI50 (SN12C): 46.5 µM (inactive); GI50 (SNB-19): 50.9 µM (inactive); GI50 (SNB-75): 26.7 µM (inactive); GI50 (SNB-78): 49.9 µM (inactive); GI50 (SR): 34.4 µM (inactive); GI50 (SW-620): 77.3 µM (inactive); GI50 (TK-10): 85.5 µM (inactive); GI50 (U-251): 42.4 µM (inactive); GI50 (UACC-257): 34.7 µM (inactive); GI50 (UACC-62): 83.6 µM (inactive); GI50 (UO-31): 24 µM (inactive); GI50 (XF498): 19.2 µM (inactive)
